Laboratory results reported in patent US9693556B2, “Herbicidal pyridazinone derivatives” (SYNGENTA LIMITED, priority 2011, dated 2017).

What was measured:
Type in all cases: in vivo
[1] = tested on: Echinochloa crus-galli (ECHCG); experiment: Post-emergence herbicidal glasshouse test on Echinochloa crus-galli; settings: post-emergence; 1000 g/h; evaluated after 13 days
In short: (§1)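 Scoring scale: 5=80-100%, 4=60-79%, 3=40-59%, 2=20-39%, 1=0-19% damage, assessed on day 13. Compound sprayed at 1000 g/h on soil-grown plants (day 1 pre-, day 8 post-emergence) kept at 24/16 °C, 14 h light.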

Solanum nigrum (SOLNI) [2] = experiment: Pre-emergence herbicidal glasshouse test on Solanum nigrum; settings: pre-emergence; 1000 g/h; evaluated after 13 days
In short: as §1

Setaria faberi (SETFA) [3] = experiment: Pre-emergence herbicidal glasshouse test on Setaria faberi; settings: pre-emergence; 1000 g/h; evaluated after 13 days
In short: as §1

[4] = tested on: Amaranthus retoflexus (AMARE); experiment: Post-emergence herbicidal glasshouse test on Amaranthus retoflexus; settings: post-emergence; 1000 g/h; evaluated after 13 days
In short: as §1

Solanum nigrum (SOLNI) [5] = experiment: Post-emergence herbicidal glasshouse test on Solanum nigrum; settings: post-emergence; 1000 g/h; evaluated after 13 days
In short: as §1

[6] = tested on: Ipomoea hederacea (IPOHE); experiment: Pre-emergence herbicidal glasshouse test on Ipomoea hederacea; settings: pre-emergence; 1000 g/h; evaluated after 13 days
In short: as §1

[7] = tested on: Ipomoea hederacea (IPOHE); experiment: Post-emergence herbicidal glasshouse test on Ipomoea hederacea; settings: post-emergence; 1000 g/h; evaluated after 13 days
In short: as §1

[8] = tested on: Echinochloa crus-galli (ECHCG); experiment: Pre-emergence herbicidal glasshouse test on Echinochloa crus-galli; settings: pre-emergence; 1000 g/h; evaluated after 13 days
In short: as §1

Setaria faberi (SETFA) [9] = experiment: Post-emergence herbicidal glasshouse test on Setaria faberi; settings: post-emergence; 1000 g/h; evaluated after 13 days
In short: as §1

[10] = tested on: Amaranthus retoflexus (AMARE); experiment: Pre-emergence herbicidal glasshouse test on Amaranthus retoflexus; settings: pre-emergence; 1000 g/h; evaluated after 13 days
In short: as §1

[11] = tested on: Alopecurus myosuroides (ALOMY); experiment: Pre-emergence herbicidal glasshouse test on Alopecurus myosuroides; settings: pre-emergence; 1000 g/h; evaluated after 13 days
In short: as §1

[12] = tested on: Alopecurus myosuroides (ALOMY); experiment: Post-emergence herbicidal glasshouse test on Alopecurus myosuroides; settings: post-emergence; 1000 g/h; evaluated after 13 days
In short: as §1

Structure (SMILES) | POST Application ECHCG herbicidal damage (five point scale) [1] | PRE Application SOLNI herbicidal damage (five point scale) (Solanum nigrum (SOLNI) [2]) | PRE Application SETFA herbicidal damage (five point scale) (Setaria faberi (SETFA) [3]) | POST Application AMARE herbicidal damage (five point scale) [4] | POST Application SOLNI herbicidal damage (five point scale) (Solanum nigrum (SOLNI) [5]) | PRE Application IPOHE herbicidal damage (five point scale) [6] | POST Application IPOHE herbicidal damage (five point scale) [7] | PRE Application ECHCG herbicidal damage (five point scale) [8] | POST Application SETFA herbicidal damage (five point scale) (Setaria faberi (SETFA) [9]) | PRE Application AMARE herbicidal damage (five point scale) [10] | PRE Application ALOMY herbicidal damage (five point scale) [11] | POST Application ALOMY herbicidal damage (five point scale) [12]
COCCOCc1nc(C(F)(F)F)ccc1-c1cnn(C)c(=O)c1O [Compound 1.072] | 5 (5=80-100% damage) | 5 (5=80-100% damage) | 5 (5=80-100% damage) | 5 (5=80-100% damage) | 5 (5=80-100% damage) | 5 (5=80-100% damage) | 5 (5=80-100% damage) | 5 (5=80-100% damage) | 5 (5=80-100% damage) | 5 (5=80-100% damage) | 4 (4=60-79% damage) | 4 (4=60-79% damage)
Cn1ncc(-c2ccc(S(C)(=O)=O)c(Cl)c2Cl)c(O)c1=O [Compound 1.050] | 5 (5=80-100% damage) | 3 (3=40-59% damage) | 2 (2=20-39% damage) | 5 (5=80-100% damage) | 5 (5=80-100% damage) | 1 (1=0-19% damage) | 5 (5=80-100% damage) | 5 (5=80-100% damage) | 4 (4=60-79% damage) | 5 (5=80-100% damage) | 1 (1=0-19% damage) | 2 (2=20-39% damage)
CC(C)Oc1nn(C)c(=O)c(O)c1-c1ccc(C(F)(F)F)cc1S(C)(=O)=O [Compound 2.052] | 5 (5=80-100% damage) | 5 (5=80-100% damage) | 3 (3=40-59% damage) | 5 (5=80-100% damage) | 5 (5=80-100% damage) | 4 (4=60-79% damage) | 5 (5=80-100% damage) | 5 (5=80-100% damage) | 5 (5=80-100% damage) | 5 (5=80-100% damage) | 4 (4=60-79% damage) | 5 (5=80-100% damage)
Cn1ncc(-n2ccc3ccccc3c2=O)c(O)c1=O [Compound 1.069] | 5 (5=80-100% damage) | 2 (2=20-39% damage) | 2 (2=20-39% damage) | 5 (5=80-100% damage) | 4 (4=60-79% damage) | 4 (4=60-79% damage) | 4 (4=60-79% damage) | 5 (5=80-100% damage) | 1 (1=0-19% damage) | 2 (2=20-39% damage) | 1 (1=0-19% damage) | 2 (2=20-39% damage)
Cc1cccc(-c2c(C(F)(F)F)ccn(-c3cnn(C)c(=O)c3O)c2=O)c1 [Compound 1.038, 4-hydroxy-2-methyl-5-[3-(m-tolyl)-2-oxo-4-(trifluoromethyl)-1-pyridyl]pyridazin-3-one] | 4 (4=60-79% damage) | 5 (5=80-100% damage) | 3 (3=40-59% damage) | 5 (5=80-100% damage) | 5 (5=80-100% damage) | 1 (1=0-19% damage) | 4 (4=60-79% damage) | 5 (5=80-100% damage) | 5 (5=80-100% damage) | 5 (5=80-100% damage) | 3 (3=40-59% damage) | 4 (4=60-79% damage)
